These results are taken from US20220324913A1, “ANTIGENIC NEURON SPECIFIC ENOLASE PEPTIDES FOR DIAGNOSING AND TREATING AUTISM” (THE REGENTS OF THE UNIVERSITY OF CALIFORNIA, priority 2019, published 2022).

“Also recorded” adds a separate entry of the source.

Format in all cases: binding, human
Test [1] relates to maternal autoantibodies. The test can be described thus: Western blot of recombinant proteins probed with maternal plasma. As to conditions: compared with NNE, ALDOC and CKB; plasma 1:800. The procedure: To test autoantibody reactivity to FMB Fraction #12 that contained proteins between 37-45 kDa, the fraction was probed with maternal plasma samples as described previously (FIG. 1D). In summary, 200 μg of protein were denatured by heating at 100° C. for 10 min in SDS buffer and separated on a 12% SDS-PAGE gel at 200V for 1 hour. Proteins were transferred to a 0.2 μm nitrocellulose membrane overnight (10V for 16 hours) at 4° C. To confirm the transfer, the membrane was stained with Ponceau dye and cut into 3 mm strips that were labeled and blocked with 1% casein buffer. Plasma samples were then diluted (1:400), added to the strips, incubated for 1.5 hours at RT followed by five washes, and incubated with 1:20,000 goat anti-human IgG-HRP for 30 minutes. After five washes, detection was performed by adding 800 μl of Super Signal substrate and strips were placed on a glass plate to be imaged using the FluoroChem 8900 imager. Images were scored as 0 if negative and 1 if positive.
The top 4 commercially available antigens identified by mass spectrometry with a 100 C.I. were selected for further evaluation. To evaluate antibody reactivity against our top hits including NSE, NNE, ALDOC, and CKB, 2 μg protein of recombinant protein (Novus Biologicals, Littleton, Colo.) were probed with diluted maternal plasma (1:800) by WB as described previously. […]
(In general: A western blot detects proteins with antibodies after separation by electrophoresis.)

Test [2] has as its system maternal autoantibodies (plasma from mothers of ASD and TD children). The test can be described thus: ELISA of maternal plasma reactivity to recombinant NSE. As to conditions: for Reactivity observed, number of mothers: plasma 1:500. The procedure: Once NSE was identified as a viable antigenic candidate by WB, we evaluated a larger sample set for NSE reactivity using an ELISA method. We tested plasma from 418 mothers enrolled in the CHARGE study with at least one child with ASD (n=232) or control samples from mothers of typically developing children (TD; n=186). Microtiter plates were coated with 100 μl of NSE (Novus Biologicals, Littleton, Colo.) at 2 μg/ml in carbonate coating buffer pH 9.6, incubated overnight at 4° C., washed four times with PBST 0.05%, and blocked with 2% Super Block (Thermo Scientific, Rockford, Ill.) for 1 hour at room temperature (RT). The plasma samples were diluted 1:500 and run in duplicate. Following dilution, 100 μl of diluted sample was added to each well, incubated for 1.5 hours, washed 4×, then incubated with 1:10,000 goat anti-human IgG-HRP IgG (Kirkegaard & Perry Laboratories, Inc., Gaithersburg, Mass.) for 1 hour. The plates were then washed and detection was performed by adding 100 μl of BD optEIA liquid substrate for ELISA (BD Biosciences, San Jose, Calif.). After 4 minutes, the reaction was stopped with 50 μl of 2N HCl. The absorbance was measured at 490-450 nm using an iMark Microplate Absorbance Reader (Biorad, Hercules, Calif., USA).
For the ELISA assay, positive cutoff values for reactivity to NSE were determined using a ROC curve. The ROC curve was created by plotting the true positive rate against the false positive rate at various threshold settings. We therefore created our curve using seven positive samples (labeled as +) from mothers that have a child with ASD and were positive by WB (true positive samples) along with the test samples. By using the positive samples as the reference event, the cutoff has greater specificity (less false positives) although sacrificing some sensitivity (limit of detection). The ROC plots sensitivity versus 1−Specificity for each value creating an Area Under the Curve (AUC) that is a representation of the accuracy of the test. Youden's index was used to calculate the cutoff.
NSE was identified by mass spectrometry as a potential target of the maternal autoantibodies and, based on its critical role in neurodevelopment, we chose to further evaluate NSE as a potential MAR ASD biomarker. Recombinant NSE was used to verify maternal autoantibody reactivity first by WB followed by ELISA. […] Therefore, we utilized an approach similar to that used for the seven previously-described MAR autoantigens to probe the samples for differential epitope recognition between ASD and TD groups.
A general note: In an ELISA, binding on a coated surface is turned into a signal by an enzyme label.

Test [3] has the same test system. The test can be described thus: NSE 15-mer peptide microarray epitope mapping probed with maternal plasma. As to conditions: for Specific binding: group whose antibodies recognize the sequence; for ASD + N = 19 (number of positive samples) / ASD + N = 8 (number of positive samples): mothers of ASD children; for ASD + N = 19 (number of positive samples) / TD + N = 10 (number of positive samples) / ASD + N = 8 (number of positive samples) / TD + N = 11 (number of positive samples): positive if FI >200; for TD + N = 10 (number of positive samples) / TD + N = 11 (number of positive samples): mothers of TD children.

Consider “NSE: recombinant neuron specific enolase protein (Novus Biologicals), target autoantigen of maternal autoantibodies”, for which the “Maternal autoantibody reactivity against recombinant protein” value in test [1] was “greatest specificity”. In addition, the “Reactivity observed, percent of mothers” value was 6.2% in test [2] (mothers that had a child with ASD) and 5% in test [2] (mothers that have a typically developing child (TD)). Further, the entries for the “Reactivity observed, number of mothers” value in test [2] (of 186 mothers that have a typically developing child) and in test [2] (of the 232 mothers that had a child with ASD) were 21 and 26, respectively.

For “279 (TGDQLGALYQDFVRD; listed as Homo sapiens) [compound 279]”, in test [3] (ELISA positive samples), the Specific binding result was “ASD”, the “ASD + N = 19 (number of positive samples)” value was found to be 5 and the “TD + N = 10 (number of positive samples)” value is 0.

Take “QDFVRDYPVVSIEDP (listed as Homo sapiens) [ES 288]”: the Specific binding result in test [3] (ELISA negative samples) is “ASD-specific”.

As to “292 (RDYPVVSIEDPFDQD; listed as Homo sapiens) [compound 292]”, in test [3] (ELISA negative samples), the Specific binding result was “ASD and TD”; the “ASD + N = 8 (number of positive samples)” value was 5; the “TD + N = 11 (number of positive samples)” value was found to be 2.

With “218 (GGFAPNILENSEALE; listed as Homo sapiens) [compound 218]”, in test [3] (ELISA positive samples), the Specific binding entry was “ASD”, the “ASD + N = 19 (number of positive samples)” value was 3 and the “TD + N = 10 (number of positive samples)” value is reported as 0.

Turning to “252 (DVAASEFYRDGKYDL; listed as Homo sapiens) [compound 252]”, in test [3] (ELISA positive samples), the Specific binding result is on record as “ASD”, the “ASD + N = 19 (number of positive samples)” value stood at 3 and the “TD + N = 10 (number of positive samples)” value was 0.

As to “280 (GDQLGALYQDFVRDY; listed as Homo sapiens) [compound 280]”, in test [3] (ELISA positive samples), the Specific binding entry is “ASD”, the “ASD + N = 19 (number of positive samples)” value stood at 3 and the “TD + N = 10 (number of positive samples)” value is listed as 0.

Regarding “416 (QLMRIEEELGDEARF; listed as Homo sapiens) [compound 416]”, in test [3] (ELISA positive samples), the Specific binding result is “ASD”, the “ASD + N = 19 (number of positive samples)” value is 3 and the “TD + N = 10 (number of positive samples)” value stood at 0.

As for “407 (RSERLAKYNQLMRIE; listed as Homo sapiens) [compound 407]”, in test [3] (ELISA positive samples), the Specific binding result is recorded as “ASD”, the “ASD + N = 19 (number of positive samples)” value was determined as 3 and the “TD + N = 10 (number of positive samples)” value is 0.

“412 (AKYNQLMRIEEELGD; listed as Homo sapiens) [compound 412]”: in test [3] (ELISA positive samples), the Specific binding entry is reported as “ASD”, the “ASD + N = 19 (number of positive samples)” value is reported as 3 and the “TD + N = 10 (number of positive samples)” value came out at 0.

For the substance “409 (ERLAKYNQLMRIEEE; listed as Homo sapiens) [compound 409]”, in test [3] (ELISA positive samples), the Specific binding result was “ASD”, the “ASD + N = 19 (number of positive samples)” value came out at 7 and the “TD + N = 10 (number of positive samples)” value was 0.

Consider “299 (IEDPFDQDDWAAWSK; listed as Homo sapiens) [compound 299]”, for which, in test [3] (ELISA positive samples), the Specific binding entry is on record as “ASD”, the “ASD + N = 19 (number of positive samples)” value came to 2 and the “TD + N = 10 (number of positive samples)” value was 0.

Turning to “VVSIEDPFDQDDWAA (listed as Homo sapiens) [ES 296]”, the Specific binding result in test [3] (ELISA positive samples, listed as SEQ ID NO:10) is “recognized by plasma from both sample groups; also recorded: recognized by antibodies in both experimental groups”.

“291 (VRDYPVVSIEDPFDQ; listed as Homo sapiens) [compound 291]”: in test [3] (ELISA negative samples), the Specific binding entry is “ASD and TD”; the “ASD + N = 8 (number of positive samples)” value came out at 4; the “TD + N = 11 (number of positive samples)” value was found to be 4.

Consider “296 (VVSIEDPFDQDDWAA; listed as Homo sapiens) [compound 296]”, for which, in test [3] (ELISA negative samples), the Specific binding result was “ASD and TD”; the “ASD + N = 8 (number of positive samples)” value is reported as 4; the “TD + N = 11 (number of positive samples)” value came to 2. Besides, in test [3] (ELISA positive samples), the “ASD + N = 19 (number of positive samples)” value is 4 and the “TD + N = 10 (number of positive samples)” value is on record as 1.

On to “PVVSIEDPFDQDDWA (listed as Homo sapiens) [ES 295]”, for which the Specific binding result in test [3] (ELISA positive samples, listed as SEQ ID NO:9) is recorded as “recognized by plasma from both sample groups; also recorded: recognized by antibodies in both experimental groups”.

Regarding “290 (FVRDYPVVSIEDPFD; listed as Homo sapiens) [compound 290]”, in test [3] (ELISA negative samples), the Specific binding result is “ASD and TD”; the “ASD + N = 8 (number of positive samples)” value came out at 3; the “TD + N = 11 (number of positive samples)” value is given as 1.
